Experimental data taken from patent US20240150315A1, “BETA-2 ADRENORECEPTOR MODULATORS AND METHODS OF USING SAME” (University of Maryland, Baltimore, priority 2022, published 2024).
“Also recorded” adds a separate entry of the source.

Columns and labels:
[1] = tested on: β2AR; assay: cell surface ELISA of β2AR expression (receptor internalization) in HEK293 cells; format: cell-based, human; conditions: 15 min; for effect on ISO-induced loss of cell surface expression of wild-type or mutant β2AR: AMs 100 nM with ISO 100 nM
Method: ISO induced receptor internalization was assessed via cell surface ELISA as previously described. Briefly, HEK-293 cells expressing β2AR were plated on 24-well plates. Cells were treated with 100 nM ISO with vehicle or 100 nM AMs for 15 minutes. Post treatment, cells were washed and fixed with 10% formalin-buffered saline for 10 minutes on ice, washed twice, and further processed using horseradish peroxidase-conjugated chicken polyclonal anti-HA antibody (Abcam). Cells were washed and incubated with 3,3′,5,5′-tetramethylbenzidine substrate and transferred to a 96-well plate containing sulfuric acid to stop the colorimetric reaction. FlexStation3 was used to measure absorbance at 450 nm. All values were normalized to basal value (no ISO/AMs) of wild-type receptor.

[2] = tested on: human ASM cells; assay: collagen gel contraction assay with human ASM cells, histamine-induced contraction; format: cell-based; conditions: 10 μM histamine; for effect on ISO-mediated inhibition of histamine-induced contraction of human ASM cells: AMs 100 nM, 10 min pretreatment
Source text: β-agonists are the drug of choice for management of acute bronchoconstriction in asthmatics, acting on the target ASM cells. The Gs-cAMP-protein kinase A signaling axis effected by β-agonists inhibits contraction of ASM cells via multiple mechanisms. Therefore, it was examined whether the modulation of this signaling pathway by the discovered PAM/NAMs translated into functional differences in β2AR control of ASM contraction. In a standard gel-contraction assay, the collagen gels containing human ASM cells were incubated with different concentrations of ISO with vehicle or 100 nM AMs for 10 min, followed by stimulation with 10 μM histamine. The gel images were obtained before and after treatment with different agonists using an EVOS microscope, and a change in the gel area was calculated. Treatment with 10 μM histamine decreased the area of the gels, consistent with contraction of ASM cells. Pretreatment of gels with ISO inhibited the histamine-induced decrease in gel area (FIG. 14A).
100 μl of ASM cell suspension (5×10^5 cells/ml) containing type-I rat tail collagen (1.5 mg/ml) in F-12 medium was seeded onto a 96-well plate. After 24 h, collagen gels were loosened from the plate. The contraction was initiated by adding histamine (10 μM), with or without pretreatment with increasing concentration of ISO, with vehicle or AMs for 10 min prior to histamine. Images were obtained using an EVOS live tissue microscope before and at 10 min intervals for 40 min after the addition of histamine. Gel area was obtained for each of the mages using NIH ImageJ software. Data were expressed as percentage gel contraction and calculated using the following equation. [(T0 gel area−T10 gel area)/T0 gel area×100%].

[3] = tested on: human precision-cut lung slices; assay: bronchodilation of methacholine-contracted human precision-cut lung slices; conditions: for effect on ISO-induced increase in airway lumen area (bronchodilation): 100 nM compound, methacholine 1 μM
Method: (§1) To further examine the effect of PAMs and NAMs on β-agonists-mediated regulation of bronchorelaxation in a physiologically-relevant model, human and murine precision-cut lung slices were used. […] Lung slices were treated with increasing concentrations of ISO plus either vehicle or 100 nM of compounds 1001, 1002, and 1003, and a change in airway lumen area was determined.
(§2) FVB mice expressing human β2AR in smooth muscle were used in this study. The protocol for animal experiments is approved by the Institutional Animal Care and Use Committee. Murine lungs were perfused with 4% low melting agarose, allowed to solidify at 4° C. for 1 h. For human airways, a small lobe was inflated with 2% low-melting-point agarose and cores of 8 mm in diameter were made. Both human and murine lungs were then sliced (˜250 μm thick) using an oscillating tissue slicer (OTS-5000, FHC Inc). Lung slices cultured for 48 h were treated with methacholine (MCh, 1 μM), and images of the airways were obtained before and 10 min after MCh stimulation using EVOS FL Auto (Life technologies, Waltham, MA) microscope. The lung slices were treated with ISO (1 nM-10 μM) with vehicle or AMs and images of the airways were captured at 10 min intervals for a total of 50 min. Images of airways were used to calculate the area of airways using Image J software (NIH). Data from lung slice experiments were plotted as a percentage of methacholine-induced decrease in airway area compared to baseline area.

[4] = tested on: murine precision-cut lung slices; assay: bronchodilation of methacholine-contracted murine precision-cut lung slices; parameters: species or system FVB mice expressing human β2AR in smooth muscle; conditions: for effect on ISO-induced increase in airway lumen area (bronchodilation): 100 nM compound, methacholine 1 μM
Method: as §1, §2

[5] = target: T1, human wild type β2AR (Homo sapiens, UniProt P07550); assay: ISO-induced cAMP accumulation (ELISA) in HEK293 cells overexpressing human wild type β2AR; format: cell-based; conditions: AMs 100 nM, different concentrations of ISO
T1 construct: host or cells: HEK293
T1 sequence (P07550 whole entry): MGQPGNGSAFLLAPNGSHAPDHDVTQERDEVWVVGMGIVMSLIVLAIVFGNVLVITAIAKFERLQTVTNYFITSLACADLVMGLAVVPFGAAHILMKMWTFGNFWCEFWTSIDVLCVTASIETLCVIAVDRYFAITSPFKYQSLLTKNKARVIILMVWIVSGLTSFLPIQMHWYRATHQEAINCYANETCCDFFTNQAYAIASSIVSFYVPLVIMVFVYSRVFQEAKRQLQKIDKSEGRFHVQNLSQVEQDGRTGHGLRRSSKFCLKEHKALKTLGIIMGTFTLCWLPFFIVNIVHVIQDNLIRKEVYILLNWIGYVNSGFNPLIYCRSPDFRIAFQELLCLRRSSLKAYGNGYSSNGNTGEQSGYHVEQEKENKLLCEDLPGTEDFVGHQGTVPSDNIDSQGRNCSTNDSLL
Source text: Activation of β2AR by orthosteric ligands leads to activation of Gαs subunit, which in turn activates AC to hydrolyze ATP to produce cAMP. To determine the biological activity of the AMs of the β2AR, HEK293 cells overexpressing human wild type β2AR were stimulated with different concentrations of test compounds and evaluated for cAMP production using a cAMP ELISA. […] These compounds were used in subsequent studies.
HEK293 cell lines were obtained from the American Type Culture Collection (ATCC) and maintained in Dulbecco's modified Eagle's medium (DMEM) as described previously.
The human β2AR cDNA containing 3-HA tag at N-terminus subcloned into a pcDNA3.1 was obtained from www.cdna.org. […] Mutations were confirmed by DNA sequencing. HEK293 cells were transfected with cDNA expressing (wild type or mutant; see below) human β2AR using Lipofectamine 3000 (Invitrogen, Waltham, MA) and used for studies within 36-48 h, or were maintained in media containing G418 at 500 μg/ml concentration.
(§3) Cells were grown to full confluency in 24-well plates, serum-starved for 24 h, and then incubated with 1 mM IBMX for 10 min. Cells were then incubated with ISO (1 nM to 10 μM) or β2AR modulators alone or concomitantly for 10 min and cAMP levels were measured by ELISA (Life Technologies, Waltham, MA) as described previously.

[6] = target: T2, β2AR (Homo sapiens, UniProt P07550); assay: β-arrestin2 recruitment to the β2AR, BRET assay in HEK293 cells; format: cell-based; conditions: AMs 100 nM, increasing concentrations of ISO
T2 construct: expressed in transfected cells; host or cells: HEK293
T2 sequence (P07550 whole entry): as above
Method: In addition to the canonical Gs signaling, the “balanced” b-agonists induce β-arrestin recruitment to the β2AR resulting in β2AR desensitization and activation of non-canonical signaling such as ERK1/2 signaling. […] Furthermore, the effect of AMs on ISO-induced phosphorylation of ERK1/2 was tested.
β-agonist-induced recruitment of β-arrestin to the β2AR was assessed by BRET assay as described previously. HEK293 cells were transfected with pcDNA-β-arrestin2-GFP10 and pcDNA3-β2AR-RlucII and after 48 h the cells were treated with increasing concentration of ISO and vehicle or 100 nM PAMs or NAMs followed by the addition of Coelenterazine 400a for 20 mins. Change in BRET was measured using a Tecan Infinite F500 microplate reader. BRET ratios were calculated by dividing the intensity of light emitted by the GFP10 acceptor by the total light emitted by the RLucII donor.

[7] = tested on: R131K, R131A, Y219F, Y219S, Y219A, F282Y, F282W, and F282A mutant β2ARs; assay: ISO-induced cAMP generation in HEK293 cells expressing mutant β2AR; format: cell-based, human; conditions: AMs 100 nM, compared with wild-type β2AR
Method: To validate the identity of the computationally identified allosteric site, β2AR containing R131K, R131A, Y219F, Y219S, Y219A, F282Y, F282W, and F282A mutations was generated (FIG. 11A). Wild-type and mutant β2AR were expressed in HEK293 cells, and ISO-induced cAMP generation was measured in the presence or absence of the PAM compound 1001, or NAM compounds 1002 and 1003 (FIGS. 11B-E). The compounds were also tested at different concentrations of ISO in the cells expressing mutant β2AR (FIGS. 12A-D). The cAMP response was enhanced in cells expressing R131A and diminished in F282A mutant β2AR compared to cells expressing wild-type β2AR. […] Further, as expected, compound 1001 enhanced ISO-induced cAMP generation in cells expressing wild-type β2AR, and this effect was abolished in cells expressing mutant β2AR (FIGS. 11C-E, FIGS. 12B-D). Furthermore, NAM compounds 1002 and 1003 inhibited ISO-induced cAMP generation in wild-type β2AR expressing cells, and this inhibition was attenuated in cells expressing R131K, R131A, Y219F, Y219S, Y219A, F282Y, F282W, and F282A mutant β2ARs (FIGS. 11C-E, FIGS. 12B-D).
The human β2AR cDNA containing 3-HA tag at N-terminus subcloned into a pcDNA3.1 was obtained from www.cdna.org. Binding site residues PHE(F)282, TYR(Y)219, and ARG(R)131 were mutated to different amino acids using the QuikChange 11 XL Site-Directed Mutagenesis Kit (Agilent, Santa Clara, CA) per manufacturer's protocol. Mutations were confirmed by DNA sequencing. HEK293 cells were transfected with cDNA expressing (wild type or mutant; see below) human β2AR using Lipofectamine 3000 (Invitrogen, Waltham, MA) and used for studies within 36-48 h, or were maintained in media containing G418 at 500 μg/ml concentration. […]
as §3

[8] = tested on: mice; assay: in vivo bronchodilation after MCh-induced bronchoconstriction by flexiVent; conditions: aerosol ISO with compound vs vehicle after MCh
Method: Compound 1001 augments isoproterenol (ISO)-induced bronchodilation in mice. Change in methacholine (MCh)-induced bronchoconstriction (lung resistance) upon aerosol treatment of mice with MCh followed by aerosol treatment of mice with ISO with vehicle or compound 1001 using flexiVent (Scireq) method was assessed.
In vivo lung function measurements. Lung mechanics are studied using flexiVent (Scireq) method. Briefly, anesthetized, intubated mice are ventilated with a tidal volume of 250 μl at 150 breaths/min. Mouse airways are exposed to increasing doses of methacholine (MCh; 1.56-50 mg/ml) using an in-line ultrasonic nebulizer. Following MCh-induced bronchoconstriction, mice are aerosolized with increasing concentrations of β-agonists (0.1-20 mg/ml)+AMs (100 nM). Airway resistance (Rn), tissue damping (G), and elastance (H) data (normalized to body weight) at individual doses of agonists are determined using the flexiWare software.

Structure (SMILES)	cell surface expression of the β2AR ([1]; ISO 100 nM alone)	histamine-induced decrease in gel area ([2]; ISO pretreatment alone)	airway lumen area (bronchodilation) ([3]; ISO alone)	airway lumen area (bronchodilation) ([4]; ISO alone)	effect on ISO-induced cAMP accumulation [5]	effect on ISO-induced β-arrestin2 recruitment to the β2AR (change in BRET) [6]	effect of the modulator on ISO-induced cAMP generation in cells expressing mutant β2AR [7]	effect on ISO-induced loss of cell surface expression of wild-type or mutant β2AR [1]	effect on ISO-mediated inhibition of histamine-induced contraction of human ASM cells [2]	effect on ISO-induced increase in airway lumen area (bronchodilation) [3]	effect on ISO-induced increase in airway lumen area (bronchodilation) [4]	effect on ISO-induced bronchodilation (lung resistance) [8]
CC(C)NCC(O)c1ccc(O)c(O)c1 (centres unmarked) [ISO, isoproterenol, reference compound]	loss of cell surface expression	inhibited	dose-dependent increase	dose-dependent increase	–	–	–	–	–	–	–	–
Cc1nc2ccccc2nc1CN1CCN(C2CCCCC2)C(CCO)C1 (centres unmarked) [compound 1002]	–	–	–	–	most effective NAMs; also recorded: inhibited	did not alter	attenuated	did not affect	either slightly reduced or had no effect	mitigated	mitigated	–
Cc1cnn(-c2cc(N/N=C/c3ccccc3O)ncn2)c1 [compound 1003]	–	–	–	–	most effective NAMs; also recorded: inhibited	did not alter	attenuated	did not affect	either slightly reduced or had no effect	mitigated	mitigated	–
OCCC1CN(Cc2ccccn2)CCN1C1CCCC1 (centres unmarked) [compound 1001]	–	–	–	–	most effective PAM; also recorded: enhanced	did not alter	abolished	did not affect	significantly enhanced	significantly enhanced	significantly enhanced	augments
